Species on record: Rattus norvegicus
Test: Open TG-GATES - Regimen: Single
Type: toxicity, organism-based, Sprague-Dawley
Parameters: regimen Single, gender Male, age 6 weeks
Details: in vivo, po, 0 mg/kg, route gavage, dose level Control; for APTT / Bas / Eos / Fbg / Hb / Ht / Lym / MCH / MCHC / MCV / Mono / Neu / PT / Plat / RBC / Ret / WBC: tissue Blood; for KIDNEY_L / KIDNEY_R / KIDNEY_TOTAL: tissue Kidney; for LIVER: tissue Liver; for A/G / ALP / ALT / AST / BUN / CRE / Ca / Cl / DBIL / GLC / IP / K / LDH / Na / PL / RALB / TBIL / TC / TG / TP / gamma-GTP: tissue Plasma

Question: How did the TERMINAL_BW (9 h) turn out when `CCN(CC)N=O` [N-NITROSODIETHYLAMINE] was run?
Answer: 228.4 g

Question: And the APTT (9 h)?
Answer: 18.5 s

Question: And the Bas (9 h)?
Answer: 0.8%

Question: And the Eos (9 h)?
Answer: 1.2%

Question: And the Fbg (9 h)?
Answer: 230.8 mg/dL

Question: What about the Hb (9 h) of the same compound?
Answer: 13.7 g/dL

Question: And the Ht (9 h)?
Answer: 39.7%

Question: And the Lym (9 h)?
Answer: 75.4%

Question: And the MCH (9 h)?
Answer: 21.6 pg

Question: And the MCHC (9 h)?
Answer: 34.5%

Question: And the MCV (9 h)?
Answer: 62.5 fL

Question: What about the Mono (9 h) of the same compound?
Answer: 2.6%

Question: And the Neu (9 h)?
Answer: 19.2%

Question: And the PT (9 h)?
Answer: 12 s

Question: And the Plat (9 h)?
Answer: 125.1 x10_4/uL

Question: And the RBC (9 h)?
Answer: 636 x10_4/ul

Question: What about the Ret (9 h) of the same compound?
Answer: 7.1%

Question: What about the WBC (9 h) of the same compound?
Answer: 92.6 x10_2/uL

Question: And the KIDNEY_L (9 h)?
Answer: 1 g

Question: And the KIDNEY_R (9 h)?
Answer: 1 g

Question: And the KIDNEY_TOTAL (9 h)?
Answer: 1.9 g

Question: What about the LIVER (9 h) of the same compound?
Answer: 10.1 g

Question: What about the A/G (9 h) of the same compound?
Answer: 1.6

Question: And the ALP (9 h)?
Answer: 875.4 IU/L

Question: What about the ALT (9 h) of the same compound?
Answer: 37.8 IU/L

Question: And the AST (9 h)?
Answer: 69 IU/L

Question: And the BUN (9 h)?
Answer: 13.8 mg/dL

Question: And the CRE (9 h)?
Answer: 0.4 mg/dL

Question: What about the Ca (9 h) of the same compound?
Answer: 10.4 mg/dL

Question: What about the Cl (9 h) of the same compound?
Answer: 103 meq/L

Question: What about the DBIL (9 h) of the same compound?
Answer: 0.08 mg/dL

Question: What about the GLC (9 h) of the same compound?
Answer: 206.4 mg/dL

Question: What about the IP (9 h) of the same compound?
Answer: 8 mg/dL

Question: What about the K (9 h) of the same compound?
Answer: 3.8 meq/L

Question: What about the LDH (9 h) of the same compound?
Answer: 196.4 IU/L

Question: What about the Na (9 h) of the same compound?
Answer: 140.6 meq/L

Question: What about the PL (9 h) of the same compound?
Answer: 141.6 mg/dL

Question: And the RALB (9 h)?
Answer: 3.4 g/dL

Question: What about the TBIL (9 h) of the same compound?
Answer: 0.1 mg/dL

Question: And the TC (9 h)?
Answer: 84.2 mg/dL

Question: And the TG (9 h)?
Answer: 56.8 mg/dL

Question: And the TP (9 h)?
Answer: 5.6 g/dL

Question: What about the gamma-GTP (9 h) of the same compound?
Answer: 1.4 IU/L

Question: What about the TERMINAL_BW (24 h) of the same compound?
Answer: 229.8 g

Question: What about the APTT (24 h) of the same compound?
Answer: 18.9 s

Question: And the Bas (24 h)?
Answer: 0%

Question: What about the Eos (24 h) of the same compound?
Answer: 1.2%

Question: And the Fbg (24 h)?
Answer: 226.2 mg/dL

Question: And the Hb (24 h)?
Answer: 13.5 g/dL

Question: And the Ht (24 h)?
Answer: 39.6%

Question: What about the Lym (24 h) of the same compound?
Answer: 82.6%

Question: What about the MCH (24 h) of the same compound?
Answer: 21.5 pg

Question: And the MCHC (24 h)?
Answer: 34.1%

Question: And the MCV (24 h)?
Answer: 63.2 fL

Question: And the Mono (24 h)?
Answer: 1.8%

Question: And the Neu (24 h)?
Answer: 13.8%

Question: And the PT (24 h)?
Answer: 11.7 s

Question: What about the Plat (24 h) of the same compound?
Answer: 128.8 x10_4/uL

Question: What about the RBC (24 h) of the same compound?
Answer: 627.2 x10_4/ul

Question: What about the Ret (24 h) of the same compound?
Answer: 6.6%

Question: And the WBC (24 h)?
Answer: 85.1 x10_2/uL

Question: What about the KIDNEY_L (24 h) of the same compound?
Answer: 1.1 g

Question: And the KIDNEY_R (24 h)?
Answer: 1 g

Question: What about the KIDNEY_TOTAL (24 h) of the same compound?
Answer: 2.1 g

Question: And the LIVER (24 h)?
Answer: 10.2 g

Question: And the A/G (24 h)?
Answer: 1.6

Question: And the ALP (24 h)?
Answer: 1035 IU/L

Question: What about the ALT (24 h) of the same compound?
Answer: 37.8 IU/L

Question: What about the AST (24 h) of the same compound?
Answer: 63.6 IU/L

Question: And the BUN (24 h)?
Answer: 14 mg/dL

Question: And the CRE (24 h)?
Answer: 0.4 mg/dL

Question: What about the Ca (24 h) of the same compound?
Answer: 10.5 mg/dL

Question: And the Cl (24 h)?
Answer: 103.6 meq/L

Question: And the DBIL (24 h)?
Answer: 0.07 mg/dL

Question: What about the GLC (24 h) of the same compound?
Answer: 208 mg/dL

Question: What about the IP (24 h) of the same compound?
Answer: 9.5 mg/dL

Question: What about the K (24 h) of the same compound?
Answer: 3.7 meq/L

Question: And the LDH (24 h)?
Answer: 190.6 IU/L

Question: What about the Na (24 h) of the same compound?
Answer: 141 meq/L

Question: What about the PL (24 h) of the same compound?
Answer: 150.6 mg/dL

Question: And the RALB (24 h)?
Answer: 3.3 g/dL

Question: What about the TBIL (24 h) of the same compound?
Answer: 0.1 mg/dL

Question: What about the TC (24 h) of the same compound?
Answer: 86.6 mg/dL

Question: What about the TG (24 h) of the same compound?
Answer: 57.8 mg/dL

Question: And the TP (24 h)?
Answer: 5.4 g/dL

Question: And the gamma-GTP (24 h)?
Answer: 1 IU/L
